In PubChem BioAssay (NCI):
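1) Cells in 96-well plates. 2) Compound, 48 h, 5 concentrations. 3) Linear interpolation between surrounding doses. 4) Unreached endpoint = highest concentration. GI50: concentration for 50% inhibition of growth. TGI is the concentration that stops growth completely.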

How the values were obtained:
Experiment in all cases: growth of human tumour cells (NCI), 48 h
SNB-75 CNS = test system: SNB-75 CNS
SW-620 colon = test system: SW-620 colon
UACC-62 melanoma = test system: UACC-62 melanoma
786-0 renal = test system: 786-0 renal
HCC-2998 colon = test system: HCC-2998 colon
DU-145 prostate = test system: DU-145 prostate
SK-MEL-5 melanoma = test system: SK-MEL-5 melanoma
SNB-19 CNS = test system: SNB-19 CNS
HCT-116 colon = test system: HCT-116 colon
A549 NSCLC = test system: A549 NSCLC

Row | SMILES | GI50 (SNB-75 CNS) [µM] | TGI (SNB-75 CNS) [µM] | GI50 (SW-620 colon) [µM] | TGI (SW-620 colon) [µM] | GI50 (UACC-62 melanoma) [µM] | TGI (UACC-62 melanoma) [µM] | GI50 (786-0 renal) [µM] | TGI (786-0 renal) [µM] | GI50 (HCC-2998 colon) [µM] | TGI (HCC-2998 colon) [µM] | GI50 (DU-145 prostate) [µM] | TGI (DU-145 prostate) [µM] | GI50 (SK-MEL-5 melanoma) [µM] | TGI (SK-MEL-5 melanoma) [µM] | GI50 (SNB-19 CNS) [µM] | TGI (SNB-19 CNS) [µM] | GI50 (HCT-116 colon) [µM] | TGI (HCT-116 colon) [µM] | GI50 (A549 NSCLC) [µM] | TGI (A549 NSCLC) [µM]
1 | C[C@H](CCOc1cccc(CC(=O)O)c1)N(Cc1cccc(C(F)(F)F)c1Cl)CC(c1ccccc1)c1ccccc1 | 9.83 | 22 | 5.28 | 20.7 | 2.72 | 8.44 | 5.54 | 19.4 | 5.15 | 18 | 7.89 | 20.4 | 3.95 | 14.6 | 6.25 | 19.8 | 3.68 | 13.6 | 3.94 | 18.9
2 | CNc1cc2oc(=O)cc(C)c2cc1C | – | > 100 | – | > 100 | – | > 100 | – | > 100 | – | > 100 | – | > 100 | – | > 100 | – | > 100 | – | > 100 | – | > 100
3 | CC[C@]1(O)C[C@H]2CN(CCc3c([nH]c4ccccc34)C(C(=O)OC)(c3cc4c(cc3OC)N(C)[C@H]3[C@@](O)(C(=O)OC)[C@H](OC(C)=O)[C@]5(CC)[C@@H]6C[C@@H]6CN6CC[C@]43[C@@H]65)C2)C1 (stereo not given in full) | 0.00437 | 6.36 | 0.00564 | > 14.3 | 0.0022 | > 14.3 | 0.0068 | 5 | 0.0045 | 0.278 | < 0.00143 | > 14.3 | 0.00184 | 0.0313 | 0.00667 | > 14.3 | 0.00348 | 4.13 | 0.00372 | > 14.3
4 | Cc1ccc2c(c1)c1ccc3c(c1n2C)C(=O)C=CC3=O | – | > 10 | – | 2.37 | – | 9.48 | – | 3.44 | – | > 10 | – | > 10 | – | > 10 | – | > 10 | – | 2.92 | – | > 10
5 | NNc1ncnc2nc[nH]c12 | 24.7 | > 100 | 3.91 | > 100 | 3.05 | 39.9 | 3.03 | > 83.8 | 7.48 | > 58.1 | 3.29 | 67.8 | 6.05 | 36.4 | 28.7 | > 100 | 2.25 | 15.9 | 4.94 | > 38.6
6 | NCCCn1c2c(c3ccc([N+](=O)[O-])cc3c1=O)C(=O)c1cc(I)ccc1-2 | 0.95 | 3.9 | < 0.01 | 1.76 | < 0.01 | 1.21 | 0.021 | 1.14 | 0.307 | 1.71 | < 0.01 | 0.118 | 0.172 | 1.45 | < 0.01 | 1.61 | < 0.01 | 0.201 | 0.0133 | 1.74
